In US8569327B2, “Phenanthroindolizidine derivative and NFκB inhibitor containing same as active ingredient” (Kabushiki Kaisha Yakult Honsha, priority 2008, dated 2013):

Tests used:
SV40 promoter = SV40 promoter activity, luciferase assay in SW480/SV40-Luc cells; assay type: cell-based, human; details: for SV40 promoter inhibitory activity IC50: SW480/SV40-Luc cells, luciferase; for IC50: Homo sapiens, SW480, read-out: SV40 promoter inhibitory activity IC50
Procedure, shortened: (§1)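 Stable SW480 colon cancer lines carried luciferase driven by a 5× NFκB response element or by the SV40 promoter. Compound was added 1 h before 50 ng/mL TNFα, followed by 4 h culture at 37 °C; luminescence was read and IC50 taken as 50% inhibition of induced luciferase expression.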

NFκB = test: Inhibitory action on the NFκB activity, luciferase assay in SW480/NRE-Luc cells; assay type: cell-based, human; details: for NFκB inhibitory activity IC50: SW480/NRE-Luc cells, compound 1 h then 50 ng/mL TNFα 4 h, luciferase; for IC50: Homo sapiens, SW480, read-out: NFκB inhibitory activity IC50
Procedure, shortened: as §1

[1] = test system: mice transplanted with mouse fibrosarcoma Meth A cells; test: Animal toxicity test; assay type: in vivo; details: intravenous days 1, 5, 9, observed three weeks
Experimental: Also, the toxicity of known phenanthroindolizidine alkaloid compounds, namely (12aS,13S)-6,7-dimethoxy-9,10,11,12,12a,13-hexahydro-9a-aza-cyclopenta[b]triphenylene-3,13-diol (known compound 1; refer to WO01/023384) and (12aS,13S)-3,6,7-trimethoxy-9,10,11,12,12a,13-hexahydro-9a-aza-cyclopenta[b]triphenylene-13-ol (known compound 2; refer to Planta Med., 2002, 68: 186-188), was simultaneously studied. To a control group, a physiological saline solution, a solvent, was administered. As a result, as shown in the following Tables 35 and 36, all the mice survived in a group administered with the compound of the present invention.

[2] = test system: human colon cancer SW480 cells; test: Inhibitory action on the proliferation of SW480 cells; assay type: cell-based; details: 48 hours, TetraColor ONE; for IC50: Homo sapiens, SW480
Procedure, shortened: (§2)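 Cells seeded overnight (SW480 2000/well in 10% FBS/RPMI1640; A549, HT-29 1000/well in 10% FBS DMEM or DMEM F12 HAM), then compound-treated at 37 °C, 5% CO2 for 48 h (SW480) or 96 h (A549, HT-29). Viable cells counted by TetraColor ONE; IC50 for 50% proliferation inhibition.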

[3] = test system: human non-small cell lung cancer A549 cells; test: Inhibitory action on the proliferation of A549 cells; assay type: cell-based; details: 96 hours, TetraColor ONE; for IC50: Homo sapiens, A549
Procedure, shortened: as §2

[4] = test system: human colon cancer HT-29 cells; test: Inhibitory action on the proliferation of HT-29 cells; assay type: cell-based; details: 96 hours, TetraColor ONE; for IC50: Homo sapiens, HT-29
Procedure, shortened: as §2

Row | Compound | SV40 promoter inhibitory activity IC50 (SV40 promoter) | NFκB inhibitory activity IC50 (NFκB) | Mortality rate ([1]; total dose 25 mg/kg) | Mortality rate ([1]; total dose 50 mg/kg) | SW480 proliferation inhibitory action IC50 [2] | A549 proliferation inhibitory action IC50 [3] | HT-29 proliferation inhibitory action IC50 [4] | IC50 (SV40 promoter) | IC50 (NFκB) | IC50 [2] | IC50 [3] | IC50 [4]
1 | COc1cc2c3c(c4ccc(OC(=O)N(C)C)cc4c2cc1OC)[C@H](O)[C@@H]1CCCN1C3.Cl [Compound 21, dimethyl-carbamic acid(12aS,13S)-13-hydroxy-6,7-dimethoxy-9,10,11,12,12a,13-hexahydro-9a-aza-cyclopenta[b]triphenylene-3-yl ester hydrochloride] | >10000 ng/mL | 23.3 ng/mL | 0/5 | 0/5 | 38.3 ng/mL | 16.4 ng/mL | 24.2 ng/mL | – | – | – | – | –
2 | C#CCOC(=O)Oc1ccc2c3c(c4cc(OC)c(OC)cc4c2c1)CN1CCC[C@H]1[C@H]3O.Cl [Compound 27, carbonic acid(12aS,13S)-13-hydroxy-6,7-dimethoxy-9,10,11,12,12a,13-hexahydro-9a-aza-cyclopenta[b]triphenylene-3-yl ester-propyn-2-yl ester hydrochloride] | >10 ng/mL | 0.37 ng/mL | 0/5 | 0/5 | 0.66 ng/mL | 0.025 ng/mL | 0.055 ng/mL | – | – | – | – | –
3 | CCOC(=O)Oc1ccc2c3c(c4cc(OC)c(OC)cc4c2c1)CN1CCC[C@H]1[C@H]3O.Cl [Compound 28, carbonic acid ethyl ester(12aS,13S)-13-hydroxy-6,7-dimethoxy-9,10,11,12,12a,13-hexahydro-9a-aza-cyclopenta[b]triphenylene-3-yl ester hydrochloride] | >10 ng/mL | 1.0 ng/mL | 0/5 | 0/5 | 0.65 ng/mL | 0.037 ng/mL | 0.064 ng/mL | – | – | – | – | –
4 | COc1cc2c3c(c4cc(O)ccc4c2cc1OC)[C@H](O)[C@@H]1CCCN1C3.Cl [Compound 29, (12aS,13S)-6,7-dimethoxy-9,10,11,12,12a,13-hexahydro-9a-aza-cyclopenta[b]triphenylene-2,13-diol hydrochloride] | – | – | 0/5 | 0/5 | – | – | – | > 1000 ng/mL | 1.4 ng/mL | 4 ng/mL | 1.7 ng/mL | 2.5 ng/mL
5 | COc1cc2c3c(c4ccc(F)cc4c2cc1OC)C[C@@H]1CCCN1C3.Cl [Compound 31, (S)-3-fluoro-6,7-dimethoxy-9,10,11,12,12a,13-hexahydro-9a-aza-cyclopenta[b]triphenylene hydrochloride] | – | – | 0/5 | 0/5 | – | – | – | > 1000 ng/mL | 28.8 ng/mL | 50.2 ng/mL | 1.5 ng/mL | 10.6 ng/mL
6 | COc1cc2c3c(c4ccccc4c2cc1OC)C[C@@H]1CCCN1C3.Cl [Compound 32, (S)-6,7-dimethoxy-9,10,11,12,12a,13-hexahydro-9a-aza-cyclopenta[b]triphenylene hydrochloride] | – | – | 0/5 | 0/5 | – | – | – | > 100 ng/mL | 27.8 ng/mL | 39.3 ng/mL | 0.7 ng/mL | 3.1 ng/mL
7 | COc1cc2c3c(c4cc(O)ccc4c2cc1OC)C[C@@H]1CCCN1C3.Cl [Compound 33, (S)-6,7-dimethoxy-9,10,11,12,12a,13-hexahydro-9a-aza-cyclopenta[b]triphenylene-2-ol hydrochloride] | – | – | 0/5 | 0/5 | – | – | – | > 100 ng/mL | 5.3 ng/mL | 10.8 ng/mL | 0.97 ng/mL | 6.4 ng/mL
